Measurements taken from patent publication US20210255193A1, “LYSINE REACTIVE PROBES AND USES THEREOF” (The Scripps Research Institute, priority 2017, published 2021).

What was measured:
[1] = biological target: T1, PLIN3 Perilipin-3 (Homo sapiens, UniProt O60664); experiment: competitive isoTOP-ABPP; type: binding; parameters: key to isoTOP-ABPP reactivity ratio at lysine O60664_K257 / isoTOP-ABPP reactivity ratio at lysine O60664_K140: R = MS1 peak area ratio, DMSO (heavy) / compound-treated (light); capped at 20; details: 50 uM, in vitro; for R value (DMSO/fragment) for probe 1 labeling / isoTOP-ABPP reactivity ratio at lysine O60664_K140 / isoTOP-ABPP reactivity ratio at lysine O60664_K257: 231 sol; for isoTOP-ABPP ratio (R) at liganded lysine O60664_K140 / isoTOP-ABPP ratio (R) at liganded lysine O60664_K257: sol, 231
T1 construct: isoTOP-ABPP experiments performed in cell lysates (in vitro); endogenous in cells; host or cells: MDA-MB-231 soluble lysate
T1 sequence (O60664 1-434): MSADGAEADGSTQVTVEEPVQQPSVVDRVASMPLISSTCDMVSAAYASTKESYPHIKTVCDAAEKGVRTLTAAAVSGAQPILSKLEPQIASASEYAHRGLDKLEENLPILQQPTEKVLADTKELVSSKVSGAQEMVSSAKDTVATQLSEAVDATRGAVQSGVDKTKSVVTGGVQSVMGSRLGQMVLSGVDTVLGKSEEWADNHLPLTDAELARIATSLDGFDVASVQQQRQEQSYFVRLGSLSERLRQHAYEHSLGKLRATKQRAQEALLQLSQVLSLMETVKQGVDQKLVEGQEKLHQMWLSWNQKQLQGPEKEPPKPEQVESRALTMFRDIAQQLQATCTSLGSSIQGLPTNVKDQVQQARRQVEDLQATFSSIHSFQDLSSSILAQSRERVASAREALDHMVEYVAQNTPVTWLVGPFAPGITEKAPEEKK
Procedure: (§1) In vitro covalent fragment treatment for isoTOP-ABPP. All compounds were made up as solutions in DMSO (100×) and were used at a final concentration of 50 μM for activated esters and 100 μM for guanidinylating agents. For each profiling sample, 0.5 ml of lysate was treated with 5 μl of the 100× compound stock solution or 5 μl of DMSO. Samples were treated with activated esters for
(§2) STP-alkyne labeling and click chemistry. For concentration-dependent reactivity measurements by isoTOP-ABPP, 0.5 ml proteome aliquots were treated at ambient temperature with 1 mM STP-alkyne 1 (5 μl of 100 mM stock in DMSO) and 0.1 mM STP alkyne 1 (5 μl of 10 mM stock in DMSO), respectively. For competitive isoTOP-ABPP, after in vitro fragment treatment (detailed above), the samples were labeled for 1 h at ambient temperature with 0.1 mM STP-alkyne 1 (5 μl of 10 mM stock in DMSO). Samples were conjugated by copper-mediated azide-alkyne cycloaddition (CuAAC) to either the light (1 mM STP-alkyne or fragment treated) or heavy (0.1 mM STP-alkyne or DMSO treated) TEV tags (10 μl of 5 mM stocks in DMSO, final concentration=100 μM) using tris(2-carboxyethyl)phosphine hydrochloride
(§3) R value calculation and processing. The ratios of light and heavy MS1 peaks for each unique peptide were quantified with a CIMAGE software using default parameters (3 MS1 acquisitions per peak and signal to noise threshold set to 2.5). For reactivity measurements by isoTOP-ABPP, the R value was calculated from the ratio of MS1 peak areas, comparing the 1 mM STP alkyne sample (light TEV tag) with the 0.1 mM STP alkyne sample (heavy TEV tag). For competitive isoTOP-ABPP, the R value was calculated from the ratio of MS1 peak areas, comparing the DMSO treated sample (heavy TEV tag) with the compound treated sample (light TEV tag). […] Ratios for unique peptide entries are calculated for each experiment; overlapping peptides with the same modified lysine (for example, different charge states, MudPIT chromatographic steps or tryptic termini) are grouped together and the median ratio is reported as the final ratio (R). The peptide ratios reported by CIMAGE were further filtered to ensure the removal or correction of low-quality ratios in each individual data set. The quality filters applied were the following: removal of half tryptic peptides; for ratios with high standard deviations from the median (90% of the median or above) the lowest ratio was taken instead of the median; removal of peptides with R=20 and only a single MS2 event triggered during the elution of the parent ion; manual annotation of all the peptides with ratios of 20, removing any peptides with low quality elution profiles that remained after the previous curation steps (only done for competitive isoTOP-ABPP).
(§4) Cross-data processing for fragment screening. For compound treated samples, biological replicates of the same condition were averaged, if the standard deviation was below 60% of the mean; otherwise, for lysines with at least one R value <4 for a particular compound, the lowest value of the ratio set was taken. For lysines, where all R values for a particular compound were ≥4, the average was reported. For peptides containing several possible modified lysines, the lysine with the highest number of quantification events was used for analysis and the remaining, redundant peptides were reported as alternative modification sites. Peptides included in the aggregate dataset (those used for further bioinformatics and statistical analyses) were required to have been quantified in 2 experiments for competitive isoTOP-ABPP. Lysines were categorized as liganded, if they had at least one ratio R≥4 (hit fragments). For liganded lysines with R=20 for all liganding events, lysines were required to have been quantified with R=20 in two separate experiments and were further required to have been quantified with R<20 in one additional experiment.

[2] = biological target: T2, AGFG1 Arf-GAP domain and FG repeat-containing protein 1 (Homo sapiens, UniProt P52594); experiment: competitive isoTOP-ABPP; type: binding; parameters: key to isoTOP-ABPP reactivity ratio at lysine P52594_K134: R = MS1 peak area ratio, DMSO (heavy) / compound-treated (light); details: 50 uM, in vitro; for R value (DMSO/fragment) for probe 1 labeling: P52594_K134; for R value (DMSO/fragment) for probe 1 labeling / isoTOP-ABPP reactivity ratio at lysine P52594_K134: 231 sol; for isoTOP-ABPP ratio (R) at liganded lysine P52594_K134: sol, 231
T2 construct: isoTOP-ABPP experiments performed in cell lysates (in vitro); endogenous in cells; host or cells: soluble proteome of human cancer cell lines (MDA-MB-231, Ramos, Jurkat)
T2 sequence (P52594 1-562): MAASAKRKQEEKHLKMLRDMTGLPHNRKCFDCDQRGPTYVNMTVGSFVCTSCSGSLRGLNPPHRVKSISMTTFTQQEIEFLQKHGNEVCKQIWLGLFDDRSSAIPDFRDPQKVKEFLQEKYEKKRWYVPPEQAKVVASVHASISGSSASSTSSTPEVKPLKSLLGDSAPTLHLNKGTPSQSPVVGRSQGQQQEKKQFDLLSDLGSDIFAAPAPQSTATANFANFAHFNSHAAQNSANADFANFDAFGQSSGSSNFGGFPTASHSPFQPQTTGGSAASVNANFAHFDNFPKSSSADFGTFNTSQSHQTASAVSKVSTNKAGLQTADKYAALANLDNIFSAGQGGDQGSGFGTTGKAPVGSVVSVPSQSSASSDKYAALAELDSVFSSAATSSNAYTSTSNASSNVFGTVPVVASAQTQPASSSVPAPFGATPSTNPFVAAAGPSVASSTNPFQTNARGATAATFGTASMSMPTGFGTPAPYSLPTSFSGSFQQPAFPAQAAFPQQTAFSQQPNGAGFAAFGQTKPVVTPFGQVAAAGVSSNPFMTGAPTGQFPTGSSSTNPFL
Procedure: as §1, §2, §3, §4

| SMILES | isoTOP-ABPP reactivity ratio at lysine O60664_K140 [1] | isoTOP-ABPP reactivity ratio at lysine P52594_K134 [2] | isoTOP-ABPP reactivity ratio at lysine O60664_K257 [1] | other results |
| --- | --- | --- | --- | --- |
| O=C(CCc1cn(-c2ccccc2)nc1-c1ccccc1)Oc1c(F)c(F)c(F)c(F)c1F [fragment 19, Pentafluorophenyl 3-(1,3-diphenyl-1H-pyrazol-4-yl)propanoate] |  |  |  | R value (DMSO/fragment) for probe 1 labeling ([1]; O60664_K140): 1.5; R value (DMSO/fragment) for probe 1 labeling ([1]; O60664_K257): 2.2; R value (DMSO/fragment) for probe 1 labeling [2]: 1.0 |
| O=C(Oc1c(F)c(F)c(F)c(F)c1F)C(c1ccccc1)c1ccccc1 [fragment 20, Pentafluorophenyl 2,2-diphenylacetate] |  |  |  | R value (DMSO/fragment) for probe 1 labeling ([1]; O60664_K257): 2.5; R value (DMSO/fragment) for probe 1 labeling [2]: 1.0 |
| O=C(Oc1c(F)c(F)c(F)c(F)c1F)c1cc(C(F)(F)F)cc(C(F)(F)F)c1 [fragment 21, Pentafluorophenyl 3,5-bis(trifluoromethyl)benzoate] |  |  |  | R value (DMSO/fragment) for probe 1 labeling ([1]; O60664_K257): 2.0 |
| Cn1cc(CC(=O)Oc2c(F)c(F)c(F)c(F)c2F)c2ccccc21 [fragment 22, Pentafluorophenyl 2-(1-methyl-1H-indol-3-yl)acetate] |  |  |  | R value (DMSO/fragment) for probe 1 labeling ([1]; O60664_K257): 2.6; R value (DMSO/fragment) for probe 1 labeling [2]: 1.4 |
| COc1cc(CCC(=O)Oc2c(F)c(F)c(F)c(F)c2F)cc(OC)c1OC [fragment 23, Pentafluorophenyl 3-(3,4,5-trimethoxyphenyl)propanoate] |  |  |  | R value (DMSO/fragment) for probe 1 labeling [2]: 1.7 |
| O=C(Oc1c(F)c(F)c(F)c(F)c1F)c1ccc2ccccc2n1 [fragment 25, Pentafluorophenyl quinoline-2-carboxylate] |  | 1.1 |  |  |
| O=C(CCc1cn(-c2ccccc2)nc1-c1ccccc1)Oc1ccc([N+](=O)[O-])cc1[N+](=O)[O-] [fragment 29, 2,4-Dinitrophenyl 3-(1,3-diphenyl-1H-pyrazol-4-yl)propanoate] | 2.1 | 1.4 | 3.5 |  |
| O=C(Oc1ccc([N+](=O)[O-])cc1[N+](=O)[O-])C(c1ccccc1)c1ccccc1 [fragment 30, 2,4-Dinitrophenyl 2,2-diphenylacetate] | 4.5 | 14.3 | 2.9 |  |
| O=C(Oc1ccc([N+](=O)[O-])cc1[N+](=O)[O-])c1cc(C(F)(F)F)cc(C(F)(F)F)c1 [fragment 31, 2,4-Dinitrophenyl 3,5-bis(trifluoromethyl)benzoate] |  | 1.2 |  |  |
| Cn1cc(CC(=O)Oc2ccc([N+](=O)[O-])cc2[N+](=O)[O-])c2ccccc21 [fragment 32, 2,4-Dinitrophenyl 2-(1-methyl-1H-indol-3-yl)acetate] |  | 19.9 |  |  |
| COc1cc(CCC(=O)Oc2ccc([N+](=O)[O-])cc2[N+](=O)[O-])cc(OC)c1OC [fragment 33, 2,4-Dinitrophenyl 3-(3,4,5-trimethoxyphenyl)propanoate] | 1.1 | 20.0 | 2.2 |  |
| O=C(Oc1ccc([N+](=O)[O-])cc1[N+](=O)[O-])C1CCN(C(=O)OCc2ccccc2)CC1 [fragment 34, 1-Benzyl 4-(2,4-dinitrophenyl) piperidine-1,4-dicarboxylate] |  |  |  | isoTOP-ABPP ratio (R) at liganded lysine P52594_K134 [2]: 20.0 |
| O=C(Oc1ccc([N+](=O)[O-])cc1[N+](=O)[O-])c1ccc2ccccc2n1 [fragment 35, 2,4-Dinitrophenyl quinoline-2-carboxylate] |  |  |  | isoTOP-ABPP ratio (R) at liganded lysine O60664_K140 [1]: 1.1; isoTOP-ABPP ratio (R) at liganded lysine O60664_K257 [1]: 1.2 |
| O=C(CCc1coc2cc(F)ccc2c1=O)Oc1ccc([N+](=O)[O-])cc1[N+](=O)[O-] [fragment 36, 2,4-Dinitrophenyl 3-(7-fluoro-4-oxo-4H-chromen-3-yl)propanoate] |  |  |  | isoTOP-ABPP ratio (R) at liganded lysine O60664_K140 [1]: 1.5; isoTOP-ABPP ratio (R) at liganded lysine O60664_K257 [1]: 3.9; isoTOP-ABPP ratio (R) at liganded lysine P52594_K134 [2]: 20.0 |
| O=C(CC12CC3CC(CC(C3)C1)C2)Oc1ccc([N+](=O)[O-])cc1[N+](=O)[O-] [fragment 38, 2,4-Dinitrophenyl 2-(adamantan-1-yl)acetate] |  |  |  | isoTOP-ABPP ratio (R) at liganded lysine P52594_K134 [2]: 1.4 |
| CC(=O)Oc1ccc([N+](=O)[O-])cc1[N+](=O)[O-] [fragment 43, 2,4-Dinitrophenyl acetate] |  |  |  | isoTOP-ABPP ratio (R) at liganded lysine P52594_K134 [2]: 4.8 |

Further lines, with some results ahead:

| isoTOP-ABPP reactivity ratio at lysine O60664_K140 [1] | SMILES | isoTOP-ABPP reactivity ratio at lysine P52594_K134 [2] | isoTOP-ABPP reactivity ratio at lysine O60664_K257 [1] | other results |
| --- | --- | --- | --- | --- |
| 1.7 | O=C(Oc1c(F)c(F)c(F)c(F)c1F)C1CCN(C(=O)OCc2ccccc2)CC1 [fragment 24, 1-Benzyl 4-(pentafluorophenyl) piperidine-1,4-dicarboxylate] | 1.5 |  |  |
| 1.2 | O=C(CCc1coc2cc(F)ccc2c1=O)Oc1c(F)c(F)c(F)c(F)c1F [fragment 26, Pentafluorophenyl 3-(7-fluoro-4-oxo-4H-chromen-3-yl)propanoate] | 2.2 | 4.1 |  |
| 1.9 | O=C(CN1C(=O)c2ccccc2C1=O)Oc1c(F)c(F)c(F)c(F)c1F [fragment 27, Pentafluorophenyl 2-(1,3-dioxoisoindolin-2-yl)acetate] | 1.5 | 1.8 |  |
| 1.2 | CCn1cc(C(=O)Oc2c(F)c(F)c(F)c(F)c2F)c(=O)c2ccc(C)nc21 [fragment 28, Pentafluorophenyl 1-ethyl-7-methyl-4-oxo-1,4-dihydro-1,8-naphthyridine-3-carboxylate] | 1.0 | 1.1 |  |
